Source: EP1488698A1, “Compositions for descreasing intracellular inositol trisphosphate concentration and uses thereof” (priority 1995, dated 1997)
Marks after values point to notes of the source that are not given here.

Assays:
[1] = system: primary chick cortical neurons; assay: Phosphoinositide hydrolysis assay (InsP3 production) in cultured primary cortical neurons; format: cell-based; settings: for fold induction at 100 µM: Gallus gallus, Cortical neurone, 20 min, read-out: Ins-P-n
Procedure: The neurons were seeded in 24-well plastic tissue culture plates that had been coated with L-polylysine.
Receptor-stimulated and basal unstimulated hydrolysis of phosphoinositides was measured by the following procedure. […] The cells were then washed twice with 1 ml Dulbecco's phosphate-buffered saline (PBS) and 0.5 ml of PBS containing 4.5 g/L glucose was added. Sphingosine, psychosine, lysosulphatide, or lysosphingomyelin, prepared as the hydrochloride salt dissolved in water, were then added to produce the desired extracellular concentration in specific wells, […] The cells were then washed twice with 1 ml PBS, and pre-incubated for 15 minutes at 37°C with 0.5 ml PBS containing 10 mM LiCl and the compound to be tested was added. […] The tubes were vortexed thoroughly, then centrifuged at 500 x g for 5 minutes to separate the aqueous and chloroform phases. For each sample, a 1.5-ml aliquot of the upper (aqueous) phase was applied to a small column containing BioRad AG1X8 resin (formate form). Free [^3H]inositol and [^3H]glycerophosphoinositol were washed through the column with 5 ml of a solution containing 5 mM sodium borate and 60 mM sodium formate. The total phosphorylated [^3H] inositol fraction was eluted from the column for radiometric scintillation spectrometry analysis with 3 ml 1.0 M ammonium formate/0.1 M formic acid.
In addition, a 0.5 ml aliquot of the lower (chloroform) phase of each sample was analyzed radiometrically by scintillation spectrometry in order to determine the quantity of lipid-bound [^3H]myo-inositol. Estimation of phosphoinositide hydrolysis by phospholipase C is based upon the quantity of [^3H]inositol phosphates produced, and is expressed as the percentage of the latter relative to total free and componential [^3H]inositol (dpm ammonium formate + dpm chloroform fractions).

cortical neurons = assay: Calcium ion signalling (fura 2) in intact cortical neurons; format: cell-based, chick
Procedure: Metabotropic receptor function was examined in intact neurons by assaying lysosphingolipid modulation of calcium ion signalling. Approximately 1 X 10^6 cortical neurons were cultured on rectangular L-polylysine-coated coverslips and loaded with lysocerebroside or lysosphingomyelin to a level of 150 ± 20 pmoles per mg protein. The neurons were returned to complete Ham's high glucose medium/DMEM (1:1, vol:vol) and infiltrated with 5 µM fura 2/AM (Molecular Probes, Eugene, OR). Fura 2 is a calcium chelator whose fluorescence absorbance shifts to shorter wavelength upon calcium ion binding is measurable in intact cells. A change in intraneuronal calcium ion concentration was monitored as a change in the fluorescence spectrum.
The neurons were exposed to 10 µM glutamate agonist (for example, ibotenate) for 30 minutes at 37°C. The coverslips were then transferred to quartz cuvettes in medium containing 250 µM sulfinpyrazone to prevent fura 2/AM diffusion. Fluorescence ratios were recorded in a Perkin-Elmer LS-5 Fluorescence Spectrometer thermostatted at 37°C at excitation wavelengths of 340 and 380 nm, and emission measurement at 500 nm. Calcium ion signalling in agonist-stimulated neurons was 3.0 ± 0.2 arbitrary units for ibotenate-exposed neurons.

cultured neurons = assay: Lysosphingolipid content of cultured neurons by NBDZF fluorescence tagging; format: cell-based, chick
From the text: Agonist-binding to metabotropic receptors influences the levels of lysosphingolipid in neuronal membranes. However, there is no convenient methodology available for the measurement of lysosphingolipid content in cultured neurons. As a result, a sensitive method of fluorometric tracing has been devised and is described herein. The measurement of lysosphingolipid content in cultured neurons is based on the stable fluorescence-tagging procedure using 4-fluoro, 7-nitrobenzofuran (NBDZF) described by Nozowa et al J. Neutochem. 59:607-609, 1992). The procedure was applied to: resting neurons; neurons exposed to 100 µM metabotropic receptor agonist for 1 hour; resting neurons exogenously enriched in lysosphingolipids; and neurons exogenously enriched in lysosphingolipids and exposed to metabotropic receptor agonist for 1 hour. The neurons were scraped in batches of 10^7 (1 Petri dish, approximately 8 cm in diameter, is equivalent to 2 mg membrane protein) and subjected to anaylsis.
Total lipids were removed from the neuron samples by repeated extraction with chloroform:methanol (2:1, vol:vol). The lysosphingolipids were separated from total neuronal lipid in 90 ± 5 % recovery yield (n = 10) by the stepped chromatographic procedure of Van Veldhoven et al. (Anal. Biochem. 183:177-189, 1989). The recovered lysosphingolipids were stably tagged with NBDZF by the rapid procedure of Nozowa et al. (supra). The fluorescence tagged neuronal lysosphingolipids were separated in parallel with reference standards NBDZF-Sph, NBDZF-Psy, and NBDZF-Lsm on high performance silica gel thin layer chromatography plates with acetonitrile:H2O (10:0.5, vol:vol). The highly fluorescent, well separated bands were scraped from the plate. The fluorescence tagged lysosphingolipids are eluted from the scraped silica gel with methanol:1 N HCl (1:0.02, vol:vol). The fluorescence tagged lysosphingolipid eluates were quantitated against reference standards by fluorescence measurement in a Perkin-Elmer LS-5 Fluorescence Spectrometer.
Sphingolipid content of neurons exposed to sphingosine, lysocerebroside, and lysosphingomyelin was examined as follows. A Petri dish containing approximately 10^7 neurons was incubated with 5 µCi [^3H]myo-Ins in 3 ml DMEM overnight to prelabel the phosphoinositide InsP3 may contain. The neurons were washed with PBS and 3 ml of PBS containing 4.5 g/l glucose was added. Preparations of sphingosine, lysocerebroside, lysosphingomyelin (Sigma Chemical Co., St. Louis, MO) and combinations of each were prepared as the hydrochloride salt dissolved in PBS. The lysosphingolipids were added to the Petri dishes to produce a concentration ranging from 0 - 150 µM. The dishes were held at room temperature for 0.5, 1, or 2 hours, then washed with PBS and incubated with 5 Units of trypsin in glucose/PBS for […] at 37°C. Trypsinization removes non-specifically bound lysosphingolipids that may adhere to extracellular plasma membrane protein domains. Non-specific adherence between cationic micelles of lysosphingolipids and the neuronal glycocalyx is avoided by performing the experiments with lysosphingolipid concentrations below the critical micelle concentration. Neurons were analyzed for lysosphingolipid content as described above.

N[C@@H](CC(=O)O)C(=O)O [Aspartate, aspartate, reference compound]
fold induction at 100 µM [1]: 2.7 ± 0.06

N[C@@H](CCC(=O)O)C(=O)O [Glutamate, glutamate, reference compound]
fold induction at 100 µM [1]: 3.3 ± 0.05

NC(C(=O)O)c1cc(O)no1 (stereo not drawn) [Ibotenate, ibotenate, reference compound]
Calcium ion signalling (cortical neurons): 3.0 ± 0.2 arbitrary units
lysocerebroside content of neurons (cultured neurons): 80 ± 5
lysosphingomyelin content of neurons (cultured neurons): 52 ± 2
sphingosine content of neurons (cultured neurons): 85 ± 3
Ins-P-n [1]: 3.00 ± 0.10^f

CN[C@@H]1C[C@H]2O[C@@](C)([C@@H]1OC)n1c3ccccc3c3c4c(c5c6ccccc6n2c5c31)C(=O)NC4 [staurosporine, reference compound]
influence on the effects of sphingosine, lysocerebroside, or lysosphingomyelin on InsP3 production ([1]; brain neurons responsive to excitatory amino acids, protein kinase C inhibitor): does not influence

Lysosulphatide [reference compound]
inhibitory effect on InsP3 signalling ([1]; chick cortical neurons): without inhibitory effect
